Results published in PubChem BioAssay AID1919017 (Molecular Pharmacology Branch, DTP, NCI, 2023).

Tested on: SW1271 complex spheroids with HUVEC/MSC, growth, % test/control
Experiment: Anticancer human tumor SW1271 cell line growth inhibition [AhR];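 note: spheroids exposed to agents for 7 days before readout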
Conditions: for IC50: curve of first compound; for viability, T/C: stronger effect = lower value
How it was run: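 Spheroids combined tumor cells with HUVEC endothelial cells and human MSCs as stroma. AhR antagonists were paired with standard or investigational drugs, each dosed in half-log steps down from near clinical Cmax, or from 10 microM where Cmax was unknown.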

[1] = second compound 0.1 µM, first compound 0.0316 µM
[2] = second compound 0.1 µM, first compound 0.1 µM
[3] = second compound 0.1 µM, first compound 0.316 µM
[4] = second compound 0.1 µM, first compound 1 µM
[5] = second compound 0.1 µM, first compound 3.16 µM
[6] = second compound 0.1 µM, first compound 10 µM
[7] = second compound 0.316 µM, first compound 0.0316 µM
[8] = second compound 0.316 µM, first compound 0.1 µM
[9] = second compound 0.316 µM, first compound 0.316 µM
[10] = second compound 0.316 µM, first compound 1 µM
[11] = second compound 0.316 µM, first compound 3.16 µM
[12] = second compound 0.316 µM, first compound 10 µM
[13] = second compound 1 µM, first compound 0.0316 µM
[14] = second compound 1 µM, first compound 0.1 µM
[15] = second compound 1 µM, first compound 0.316 µM
[16] = second compound 1 µM, first compound 1 µM
[17] = second compound 1 µM, first compound 3.16 µM
[18] = second compound 1 µM, first compound 10 µM
[19] = second compound 3.16 µM, first compound 0.0316 µM
[20] = second compound 3.16 µM, first compound 0.1 µM
[21] = second compound 3.16 µM, first compound 0.316 µM
[22] = second compound 3.16 µM, first compound 1 µM
[23] = second compound 3.16 µM, first compound 3.16 µM
[24] = second compound 3.16 µM, first compound 10 µM
[25] = second compound 10 µM, first compound 0.0316 µM
[26] = second compound 10 µM, first compound 0.1 µM
[27] = second compound 10 µM, first compound 0.316 µM
[28] = second compound 10 µM, first compound 1 µM
[29] = second compound 10 µM, first compound 3.16 µM
[30] = second compound 10 µM, first compound 10 µM
[31] = second compound 0.1 µM, first compound 0.00949 µM
[32] = second compound 0.1 µM, first compound 0.03 µM
[33] = second compound 0.1 µM, first compound 0.0949 µM
[34] = second compound 0.1 µM, first compound 0.3 µM
[35] = second compound 0.316 µM, first compound 0.00949 µM
[36] = second compound 0.316 µM, first compound 0.03 µM
[37] = second compound 0.316 µM, first compound 0.0949 µM
[38] = second compound 0.316 µM, first compound 0.3 µM
[39] = second compound 1 µM, first compound 0.00949 µM
[40] = second compound 1 µM, first compound 0.03 µM
[41] = second compound 1 µM, first compound 0.0949 µM
[42] = second compound 1 µM, first compound 0.3 µM
[43] = second compound 3.16 µM, first compound 0.00949 µM
[44] = second compound 3.16 µM, first compound 0.03 µM
[45] = second compound 3.16 µM, first compound 0.0949 µM
[46] = second compound 3.16 µM, first compound 0.3 µM
[47] = second compound 10 µM, first compound 0.00949 µM
[48] = second compound 10 µM, first compound 0.03 µM
[49] = second compound 10 µM, first compound 0.0949 µM
[50] = second compound 10 µM, first compound 0.3 µM

SMILES: CC1(C)CCC(CN2CCN(c3ccc(C(=O)NS(=O)(=O)c4ccc(NCC5CCOCC5)c([N+](=O)[O-])c4)c(Oc4cnc5[nH]ccc5c4)c3)CC2)=C(c2ccc(Cl)cc2)C1 + Cc1ccccc1N=Nc1ccc(NC(=O)c2ccnn2C)c(C)c1
- IC50 (second compound 0.1 µM): > 10 µM
- IC50 (second compound 0.316 µM): > 10 µM
- IC50 (second compound 1 µM): > 10 µM
- IC50 (second compound 3.16 µM): > 10 µM
- IC50 (second compound 10 µM): > 10 µM
- viability, T/C [1]: 96.4%
- viability, T/C [2]: 99.5%
- viability, T/C [3]: 100%
- viability, T/C [4]: 79.4%
- viability, T/C [5]: 88.2%
- viability, T/C [6]: 94.1%
- viability, T/C [7]: 110%
- viability, T/C [8]: 78.6%
- viability, T/C [9]: 102%
- viability, T/C [10]: 99.3%
- viability, T/C [11]: 85.4%
- viability, T/C [12]: 90%
- viability, T/C [13]: 110%
- viability, T/C [14]: 88%
- viability, T/C [15]: 113%
- viability, T/C [16]: 92.9%
- viability, T/C [17]: 95.1%
- viability, T/C [18]: 128%
- viability, T/C [19]: 91.9%
- viability, T/C [20]: 105%
- viability, T/C [21]: 87.5%
- viability, T/C [22]: 76.1%
- viability, T/C [23]: 78.3%
- viability, T/C [24]: 112%
- viability, T/C [25]: 102%
- viability, T/C [26]: 99.3%
- viability, T/C [27]: 98.4%
- viability, T/C [28]: 86%
- viability, T/C [29]: 83%
- viability, T/C [30]: 93.3%

SMILES: CCN(c1cc(-c2ccc(CN3CCOCC3)cc2)cc(C(=O)NCc2c(C)cc(C)[nH]c2=O)c1C)C1CCOCC1 + Cc1ccccc1N=Nc1ccc(NC(=O)c2ccnn2C)c(C)c1
- IC50 (second compound 0.1 µM): > 3 µM
- IC50 (second compound 0.316 µM): > 3 µM
- IC50 (second compound 1 µM): > 3 µM
- IC50 (second compound 3.16 µM): > 3 µM
- IC50 (second compound 10 µM): > 3 µM
- viability, T/C [31]: 115%
- viability, T/C [32]: 111%
- viability, T/C [33]: 117%
- viability, T/C [34]: 107%
- viability, T/C (second compound 0.1 µM, first compound 0.949 µM): 118%
- viability, T/C (second compound 0.1 µM, first compound 3 µM): 110%
- viability, T/C [35]: 115%
- viability, T/C [36]: 118%
- viability, T/C [37]: 106%
- viability, T/C [38]: 123%
- viability, T/C (second compound 0.316 µM, first compound 0.949 µM): 105%
- viability, T/C (second compound 0.316 µM, first compound 3 µM): 107%
- viability, T/C [39]: 117%
- viability, T/C [40]: 110%
- viability, T/C [41]: 122%
- viability, T/C [42]: 122%
- viability, T/C (second compound 1 µM, first compound 0.949 µM): 98%
- viability, T/C (second compound 1 µM, first compound 3 µM): 88%
- viability, T/C [43]: 99.3%
- viability, T/C [44]: 114%
- viability, T/C [45]: 102%
- viability, T/C [46]: 148%
- viability, T/C (second compound 3.16 µM, first compound 0.949 µM): 120%
- viability, T/C (second compound 3.16 µM, first compound 3 µM): 108%
- viability, T/C [47]: 96.5%
- viability, T/C [48]: 103%
- viability, T/C [49]: 91.7%
- viability, T/C [50]: 111%
- viability, T/C (second compound 10 µM, first compound 0.949 µM): 103%
- viability, T/C (second compound 10 µM, first compound 3 µM): 118%

SMILES: Cn1ncnc1C1c2n[nH]c(=O)c3cc(F)cc(c23)NC1c1ccc(F)cc1 (stereo not given) + Cc1ccccc1N=Nc1ccc(NC(=O)c2ccnn2C)c(C)c1
- IC50 (second compound 0.1 µM): > 0.1 µM
- IC50 (second compound 0.316 µM): > 0.1 µM
- IC50 (second compound 1 µM): > 0.1 µM
- IC50 (second compound 3.16 µM): > 0.1 µM
- IC50 (second compound 10 µM): > 0.1 µM
- viability, T/C (second compound 0.1 µM, first compound 0.000316 µM): 118%
- viability, T/C (second compound 0.1 µM, first compound 0.001 µM): 120%
- viability, T/C (second compound 0.1 µM, first compound 0.00316 µM): 133%
- viability, T/C (second compound 0.1 µM, first compound 0.01 µM): 109%
- viability, T/C [1]: 117%
- viability, T/C [2]: 116%
- viability, T/C (second compound 0.316 µM, first compound 0.000316 µM): 124%
- viability, T/C (second compound 0.316 µM, first compound 0.001 µM): 127%
- viability, T/C (second compound 0.316 µM, first compound 0.00316 µM): 109%
- viability, T/C (second compound 0.316 µM, first compound 0.01 µM): 118%
- viability, T/C [7]: 121%
- viability, T/C [8]: 108%
- viability, T/C (second compound 1 µM, first compound 0.000316 µM): 105%
- viability, T/C (second compound 1 µM, first compound 0.001 µM): 93.8%
- viability, T/C (second compound 1 µM, first compound 0.00316 µM): 117%
- viability, T/C (second compound 1 µM, first compound 0.01 µM): 117%
- viability, T/C [13]: 99.3%
- viability, T/C [14]: 114%
- viability, T/C (second compound 3.16 µM, first compound 0.000316 µM): 96.1%
- viability, T/C (second compound 3.16 µM, first compound 0.001 µM): 127%
- viability, T/C (second compound 3.16 µM, first compound 0.00316 µM): 124%
- viability, T/C (second compound 3.16 µM, first compound 0.01 µM): 122%
- viability, T/C [19]: 97.5%
- viability, T/C [20]: 131%
- viability, T/C (second compound 10 µM, first compound 0.000316 µM): 118%
- viability, T/C (second compound 10 µM, first compound 0.001 µM): 124%
- viability, T/C (second compound 10 µM, first compound 0.00316 µM): 110%
- viability, T/C (second compound 10 µM, first compound 0.01 µM): 94.5%
- viability, T/C [25]: 90.5%
- viability, T/C [26]: 82.9%

SMILES: NS(=O)(=O)OCC1CC(n2ccc3c(NC4CCc5ccccc54)ncnc32)CC1O (stereo not given) + Cc1ccccc1N=Nc1ccc(NC(=O)c2ccnn2C)c(C)c1
- IC50 (second compound 0.1 µM): > 10 µM
- IC50 (second compound 0.316 µM): > 10 µM
- IC50 (second compound 1 µM): > 10 µM
- IC50 (second compound 3.16 µM): > 10 µM
- IC50 (second compound 10 µM): > 10 µM
- viability, T/C [1]: 129%
- viability, T/C [2]: 161%
- viability, T/C [3]: 118%
- viability, T/C [4]: 101%
- viability, T/C [5]: 91.2%
- viability, T/C [6]: 82.5%
- viability, T/C [7]: 135%
- viability, T/C [8]: 165%
- viability, T/C [9]: 112%
- viability, T/C [10]: 95.9%
- viability, T/C [11]: 103%
- viability, T/C [12]: 86.3%
- viability, T/C [13]: 157%
- viability, T/C [14]: 132%
- viability, T/C [15]: 151%
- viability, T/C [16]: 88.2%
- viability, T/C [17]: 80.1%
- viability, T/C [18]: 78.5%
- viability, T/C [19]: 157%
- viability, T/C [20]: 206%
- viability, T/C [21]: 111%
- viability, T/C [22]: 89.7%
- viability, T/C [23]: 89.1%
- viability, T/C [24]: 83.2%
- viability, T/C [25]: 128%
- viability, T/C [26]: 132%
- viability, T/C [27]: 123%
- viability, T/C [28]: 94%
- viability, T/C [29]: 77.4%
- viability, T/C [30]: 84.9%

SMILES: Nc1ncn(C2CC(O)C(CO)S2)c(=O)n1 (stereo not given) + Cc1ccccc1N=Nc1ccc(NC(=O)c2ccnn2C)c(C)c1
- IC50 (second compound 0.1 µM): > 0.3 µM
- IC50 (second compound 0.316 µM): > 0.3 µM
- IC50 (second compound 1 µM): > 0.3 µM
- IC50 (second compound 3.16 µM): > 0.3 µM
- IC50 (second compound 10 µM): > 0.3 µM
- viability, T/C (second compound 0.1 µM, first compound 0.000949 µM): 120%
- viability, T/C (second compound 0.1 µM, first compound 0.003 µM): 102%
- viability, T/C [31]: 87.8%
- viability, T/C [32]: 102%
- viability, T/C [33]: 95.4%
- viability, T/C [34]: 79.5%
- viability, T/C (second compound 0.316 µM, first compound 0.000949 µM): 101%
- viability, T/C (second compound 0.316 µM, first compound 0.003 µM): 94.4%
- viability, T/C [35]: 83.6%
- viability, T/C [36]: 89.2%
- viability, T/C [37]: 89.9%
- viability, T/C [38]: 78.6%
- viability, T/C (second compound 1 µM, first compound 0.000949 µM): 87.9%
- viability, T/C (second compound 1 µM, first compound 0.003 µM): 96%
- viability, T/C [39]: 109%
- viability, T/C [40]: 94.6%
- viability, T/C [41]: 76.9%
- viability, T/C [42]: 99.9%
- viability, T/C (second compound 3.16 µM, first compound 0.000949 µM): 81.2%
- viability, T/C (second compound 3.16 µM, first compound 0.003 µM): 115%
- viability, T/C [43]: 116%
- viability, T/C [44]: 88.7%
- viability, T/C [45]: 85.4%
- viability, T/C [46]: 105%
- viability, T/C (second compound 10 µM, first compound 0.000949 µM): 103%
- viability, T/C (second compound 10 µM, first compound 0.003 µM): 95.3%
- viability, T/C [47]: 86%
- viability, T/C [48]: 92.7%
- viability, T/C [49]: 85%
- viability, T/C [50]: 77.2%
